Data taken from PubChem BioAssay AID2060889 (Molecular Pharmacology Branch, DTP, NCI, 2025).

Test system: LG0567-F671-PDC complex spheroids viability
Test: Anticancer human tumor LG0567-F671-PDC patient-derived lung adenocarcinoma cell line growth inhibition [RAS]
Conditions: for IC50: curve of first compound; for viability, T/C: stronger effect = lower value
Description: RAS pathway inhibitors in Combinations in Complex Spheroids
A high-throughput screen of multi-cell type tumor spheroids was designed to identify active combinations of RAS pathway inhibitors and targeted small molecules. Complex spheroids include a stromal component modeled by human endothelial cells (HUVEC) and fibroblasts modeled by human mesenchymal stem cells (MSCs). The concentration ranges selected for each drug and investigational agent were based upon clinically achievable concentrations if the clinical Cmax of the agent was known.
Compounds. The drugs and investigational agents: abemaciclib (NSC768073), cobimetinib (NSC768068), divarasib (GDC6063, NSC841802), docetaxel (NSC628503), GDC-1971 (RLY-1971, NSC841576), gemcitabine (NSC613327), inavolisib (NSC800729), ipatasertib (NSC767898), KB-0742 (NSC834161), MRTX-1133 (NSC836407), osimertinib (NSC779217), RMC-4630 (NSC839698), RMC-6236 (NSC851965), RMC-6291 (NSC852671), Ro-3306 (NSC812927), sapanisertib (NSC764658), SN-38 (NSC673596), staurosporine (NSC755774), SY5609 (NSC837396), and tovorafenib (DAY101, NSC766906), were obtained from the National Cancer Institute (NCI) Developmental Therapeutics Program Chemical Repository. The FDA-approved anticancer drug set is available from the NCI Developmental Therapeutics Program. […] The stock solutions were prepared in dimethyl sulfoxide (DMSO, Sigma-Aldrich, St. Louis, MO, cat. D2650) at 800-fold the tested concentration and stored at -70 degrees C prior to their use. All drugs and investigational agents were tested over a range starting from a high concentration at or near the clinical Cmax and decreasing in half-log increments. If the clinical Cmax for an agent had not been determined, the highest concentration tested was 10 microM.
Cell Culture. All cells were maintained in an incubator at 37 degrees C and 5% CO2 with 95% humidity. The PDC lines were cultured according to standard operating procedures established by the NCI PDMR. All PDCs were thawed and cultured in Matrigel-coated flasks prepared with a working solution of 1X Ham's F-12 nutrient mix, without supplementation (Invitrogen, Waltham, MA, cat. 11765054), 100 U/mL penicillin-streptomycin (Invitrogen, cat. 15140122), and 2.5% Matrigel (Corning Inc., Corning, NY, cat. 354248) for the first three passages. The 362531-283-R-J2-PDC and 782815-120-R-J1-PDC lines were cultured in 6C/Colon 1B media, which includes advanced DMEM/F-12 (Thermo Fisher Scientific, cat. 12634028), 10 mM HEPES (Thermo Fisher Scientific, cat. 15630080), 1X GlutaMAX supplement (Thermo Fisher Scientific, cat. 35050061), 0.1 mg/mL primocin (InvivoGen, San Diego, CA, cat. ant-pm-2), 10% defined fetal bovine serum, heat inactivated (HyClone Laboratories Inc., Logan, UT, cat. SH30070.03HI), 50% L-WRN conditioned media (ATCC, cat. CRL-3276), 1.25 mM N-Acetyl-L-cysteine (Sigma-Aldrich, cat. A9165), 10 mM nicotinamide (Sigma-Aldrich, cat. N0636), 1X B-27 supplement (Thermo Fisher Scientific, cat. 17504044), 1X N-2 supplement (Thermo Fisher Scientific, cat. 17502048), 50 ng/mL human EGF (Thermo Fisher Scientific, cat. PHG0311), and 10 microM Y-27632 dihydrochloride (Tocris Bioscience, cat. 1254). The K12877-001-R-J1-PDC line was cultured in 6I media, which includes all 6C/Colon 1B media plus 10 ng/mL human FGF-10 (PeproTech, cat. 100-26), 1 ng/mL human FGF-2 (PeproTech, cat. 100-18B), 1 µM prostaglandin E2 (Tocris Bioscience, cat. 2296), […] hydrocortisone (Sigma-Aldrich, cat. H4001), and […] bovine insulin (Sigma-Aldrich, cat. I6634). The K86415-001-R-J1-PDC line was cultured in 6D media, which includes all 6C/Colon 1B media components minus the L-WRN conditioned media. The 485176-168-R4-J1-PDC was cultured in PANC media, which includes all 6C/Colon 1B media plus 100 ng/mL human FGF-10 (PeproTech, cat. 100-26), 500 nM SB-431542 (Selleckchem, cat. S1067), and 10 nM gastrin (Tocris Bioscience, cat. 3006). […]

[1] = second compound 0.0316 µM, first compound 0.0316 µM
[2] = second compound 0.0316 µM, first compound 0.1 µM
[3] = second compound 0.0316 µM, first compound 0.316 µM
[4] = second compound 0.0316 µM, first compound 1 µM
[5] = second compound 0.1 µM, first compound 0.0316 µM
[6] = second compound 0.1 µM, first compound 0.1 µM
[7] = second compound 0.1 µM, first compound 0.316 µM
[8] = second compound 0.1 µM, first compound 1 µM
[9] = second compound 0.316 µM, first compound 0.0316 µM
[10] = second compound 0.316 µM, first compound 0.1 µM
[11] = second compound 0.316 µM, first compound 0.316 µM
[12] = second compound 0.316 µM, first compound 1 µM
[13] = second compound 1 µM, first compound 0.0316 µM
[14] = second compound 1 µM, first compound 0.1 µM
[15] = second compound 1 µM, first compound 0.316 µM
[16] = second compound 1 µM, first compound 1 µM
[17] = second compound 3.16 µM, first compound 0.0316 µM
[18] = second compound 3.16 µM, first compound 0.1 µM
[19] = second compound 3.16 µM, first compound 0.316 µM
[20] = second compound 3.16 µM, first compound 1 µM
[21] = second compound 10 µM, first compound 0.0316 µM
[22] = second compound 10 µM, first compound 0.1 µM
[23] = second compound 10 µM, first compound 0.316 µM
[24] = second compound 10 µM, first compound 1 µM
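Note: spheroids exposed to compound for seven days before readout.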
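Throughout, for IC50: luminescence signal used as a proxy for viable cells.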

CC(Nc1ccc2c(c1)OCCn1cc(N3C(=O)OCC3C(F)F)nc1-2)C(N)=O (centres undefined) + C#Cc1c(F)ccc2cc(O)cc(-c3ncc4c(N5CC6CCC(C5)N6)nc(OCC56CCCN5CC(F)C6)nc4c3F)c12
IC50 (second compound 0.0316 µM): 205 nM | IC50 (second compound 0.1 µM): 211 nM | IC50 (second compound 0.316 µM): 38.6 nM | IC50 (second compound 1 µM): < 31.6 nM | IC50 (second compound 3.16 µM): < 31.6 nM | IC50 (second compound 10 µM): < 31.6 nM | viability, T/C [1]: 77.6% | viability, T/C [2]: 56.2% | viability, T/C [3]: 46.9% | viability, T/C [4]: 38.2% | viability, T/C (second compound 0.0316 µM, first compound 3.16 µM): 35% | viability, T/C (second compound 0.0316 µM, first compound 10 µM): 31.9% | viability, T/C [5]: 73.5% | viability, T/C [6]: 62.1% | viability, T/C [7]: 43.2% | viability, T/C [8]: 32.1% | viability, T/C (second compound 0.1 µM, first compound 3.16 µM): 30.7% | viability, T/C (second compound 0.1 µM, first compound 10 µM): 26% | viability, T/C [9]: 53.1% | viability, T/C [10]: 38% | viability, T/C [11]: 31.3% | viability, T/C [12]: 30.3% | viability, T/C (second compound 0.316 µM, first compound 3.16 µM): 28.4% | viability, T/C (second compound 0.316 µM, first compound 10 µM): 22.2% | viability, T/C [13]: 26.7% | viability, T/C [14]: 25.6% | viability, T/C [15]: 20.9% | viability, T/C [16]: 19.1% | viability, T/C (second compound 1 µM, first compound 3.16 µM): 18.3% | viability, T/C (second compound 1 µM, first compound 10 µM): 14.8% | viability, T/C [17]: 16.6% | viability, T/C [18]: 14.6% | viability, T/C [19]: 11.5% | viability, T/C [20]: 12.6% | viability, T/C (second compound 3.16 µM, first compound 3.16 µM): 10% | viability, T/C (second compound 3.16 µM, first compound 10 µM): 7.52% | viability, T/C [21]: 9.27% | viability, T/C [22]: 6.91% | viability, T/C [23]: 5.66% | viability, T/C [24]: 5.21% | viability, T/C (second compound 10 µM, first compound 3.16 µM): 5.4% | viability, T/C (second compound 10 µM, first compound 10 µM): 4.6%

O=C(c1ccc(F)c(F)c1Nc1ccc(I)cc1F)N1CC(O)([C@@H]2CCCCN2)C1 + C#Cc1c(F)ccc2cc(O)cc(-c3ncc4c(N5CC6CCC(C5)N6)nc(OCC56CCCN5CC(F)C6)nc4c3F)c12
IC50 (second compound 0.0316 µM): 13.6 nM | IC50 (second compound 0.1 µM): 8.46 nM | IC50 (second compound 0.316 µM): 5.19 nM | IC50 (second compound 1 µM): < 3.16 nM | IC50 (second compound 3.16 µM): < 3.16 nM | IC50 (second compound 10 µM): < 3.16 nM | viability, T/C (second compound 0.0316 µM, first compound 0.00316 µM): 80.2% | viability, T/C (second compound 0.0316 µM, first compound 0.01 µM): 53.4% | viability, T/C [1]: 37% | viability, T/C [2]: 23% | viability, T/C [3]: 10.1% | viability, T/C [4]: 3.93% | viability, T/C (second compound 0.1 µM, first compound 0.00316 µM): 64.2% | viability, T/C (second compound 0.1 µM, first compound 0.01 µM): 45.9% | viability, T/C [5]: 35.4% | viability, T/C [6]: 19.2% | viability, T/C [7]: 10.7% | viability, T/C [8]: 3.38% | viability, T/C (second compound 0.316 µM, first compound 0.00316 µM): 52.8% | viability, T/C (second compound 0.316 µM, first compound 0.01 µM): 46.8% | viability, T/C [9]: 30.7% | viability, T/C [10]: 17.1% | viability, T/C [11]: 9.98% | viability, T/C [12]: 3.87% | viability, T/C (second compound 1 µM, first compound 0.00316 µM): 34.5% | viability, T/C (second compound 1 µM, first compound 0.01 µM): 28% | viability, T/C [13]: 21.3% | viability, T/C [14]: 12.1% | viability, T/C [15]: 6.87% | viability, T/C [16]: 3.06% | viability, T/C (second compound 3.16 µM, first compound 0.00316 µM): 17.3% | viability, T/C (second compound 3.16 µM, first compound 0.01 µM): 14.1% | viability, T/C [17]: 16.4% | viability, T/C [18]: 7.89% | viability, T/C [19]: 3.15% | viability, T/C [20]: 2.12% | viability, T/C (second compound 10 µM, first compound 0.00316 µM): 10.5% | viability, T/C (second compound 10 µM, first compound 0.01 µM): 7.59% | viability, T/C [21]: 5.41% | viability, T/C [22]: 2.84% | viability, T/C [23]: 1.91% | viability, T/C [24]: 1.49%
